The text below walks through data of PubChem BioAssay (NCI).

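Growth conditions: 96-well plates. Treatment: test compound, 48 hours, 5 concentrations. Analysis: linear interpolation between bracketing concentrations; unreached endpoints set to highest concentration. TGI is the concentration that stops growth completely.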

Some test systems named below: MDA-MB-231 breast; ACHN renal; MALME-3M melanoma; SW-620 colon; K-562 leukemia; SN12C renal; OVCAR-4 ovarian; HT29 colon; RXF 393 renal; T-47D breast.
Holding throughout (experiment): NCI-60 cell line screen, 48 h

Take `CC1(C)OC[C@@H](O)[C@H](Br)CO1`: the TGI in the experiment on MDA-MB-231 breast, with ACHN renal, in the experiment on MALME-3M melanoma, in the experiment with SW-620 colon, in the experiment with K-562 leukemia and in the experiment with SN12C renal was more than 100 µM throughout. In addition, the TGI in the experiment on OVCAR-4 ovarian, with HT29 colon, in the experiment with RXF 393 renal and in the experiment with T-47D breast was more than 100 µM in each case.

For `Cc1ccc2oc3c(c(Br)c(Br)n3C)c(=O)c2c1`, the TGI with MDA-MB-231 breast is 43.5 µM; in the experiment on ACHN renal, 32.1 µM; in the experiment on MALME-3M melanoma, 70.5 µM; in the experiment on SW-620 colon, more than 100 µM; with K-562 leukemia it was more than 100 µM; in the experiment with SN12C renal it was 47 µM. The TGI with OVCAR-4 ovarian is more than 100 µM; with HT29 colon, more than 100 µM; with RXF 393 renal, 31.4 µM; in the experiment on T-47D breast it was more than 100 µM.

On to `CCOC(=O)C(C)c1nc2ccc(C(F)(F)F)cc2[nH]c1=O` (stereo not given), for which the TGI in the experiment on MDA-MB-231 breast, in the experiment with ACHN renal, with MALME-3M melanoma, in the experiment with SW-620 colon, in the experiment on K-562 leukemia and in the experiment with SN12C renal was more than 100 µM each time. Besides, the TGI is more than 100 µM with OVCAR-4 ovarian, more than 100 µM with HT29 colon, more than 100 µM in the experiment with RXF 393 renal and 69.9 µM with T-47D breast.

With `CC[C@H](C)C1=C(O)[N@+]2([O-])Oc3ccc(-c4c(O)c(O)c(-c5ccc(O)cc5)c(OC(C)=O)c4OC(C)=O)cc3O[C@]2([C@@H](C)CC)C(=O)N1O`, the TGI in the experiment with MDA-MB-231 breast, in the experiment on ACHN renal, with MALME-3M melanoma, in the experiment with SW-620 colon, in the experiment on K-562 leukemia and with SN12C renal was more than 50 µM throughout. In addition, the TGI in the experiment on OVCAR-4 ovarian was 36.2 µM; in the experiment on HT29 colon, more than 50 µM; in the experiment with RXF 393 renal, more than 50 µM; in the experiment on T-47D breast, more than 50 µM.

With `CC1(C)CCCCCC(C)(CCCO)C1=O` (stereo not given), the TGI in the experiment with MDA-MB-231 breast, in the experiment with ACHN renal, with MALME-3M melanoma, with SW-620 colon, in the experiment on K-562 leukemia and in the experiment on SN12C renal was more than 100 µM in each case. For the same compound, the TGI in the experiment with OVCAR-4 ovarian, with HT29 colon, in the experiment on RXF 393 renal and in the experiment with T-47D breast was more than 100 µM in each case.

Consider `CC1CN=C(c2cccc(-c3nc(-c4cccc(C5=NCC(C)N5)c4)nc(N(C)C)n3)c2)N1` (stereo not given), for which the TGI was determined as 3.48 µM in the experiment on MDA-MB-231 breast; 10.1 µM in the experiment with ACHN renal; 14.8 µM in the experiment on MALME-3M melanoma; 3.72 µM with SW-620 colon; 2.77 µM with K-562 leukemia; 3.46 µM with SN12C renal. In addition, the TGI amounted to 2.72 µM with OVCAR-4 ovarian, 5.48 µM with HT29 colon, 11.8 µM in the experiment with RXF 393 renal and 15.1 µM in the experiment on T-47D breast.

In the case of `CCOC(=O)c1cc(C2CCN(c3ccccc3)C2=O)c(C(=O)/C=C(/C)N)[nH]1` (stereo not given), the TGI is more than 100 µM in the experiment with MDA-MB-231 breast; more than 100 µM in the experiment on ACHN renal; 35.6 µM in the experiment on MALME-3M melanoma; more than 100 µM in the experiment on SW-620 colon; more than 100 µM in the experiment with K-562 leukemia; 63.7 µM in the experiment on SN12C renal. The TGI with OVCAR-4 ovarian was more than 100 µM; with HT29 colon it was 25.6 µM; in the experiment on RXF 393 renal, 78.6 µM; in the experiment on T-47D breast, more than 100 µM.

Take `COc1cc(NC=C2C(=O)OC(C)(C)OC2=O)c(OC)c(C)c1OC`: the TGI in the experiment with MDA-MB-231 breast, with ACHN renal, with MALME-3M melanoma, with SW-620 colon, with K-562 leukemia and with SN12C renal was more than 100 µM throughout. Moreover, the TGI in the experiment on OVCAR-4 ovarian, with HT29 colon, with RXF 393 renal and with T-47D breast was more than 100 µM throughout.

For the compound `CC(C)/C(=N\[N+](C)(C)C)c1ccccc1`, the TGI in the experiment on MDA-MB-231 breast, in the experiment with ACHN renal, in the experiment on MALME-3M melanoma, in the experiment with SW-620 colon, with K-562 leukemia and in the experiment with SN12C renal was more than 100 µM in each case. Further, the TGI in the experiment on OVCAR-4 ovarian, in the experiment with HT29 colon, with RXF 393 renal and in the experiment with T-47D breast was more than 100 µM each time.

As for `C=CCCCCOC1C=CC(O)C(CO)O1` (stereo not given), the TGI with MDA-MB-231 breast, in the experiment with ACHN renal, in the experiment with MALME-3M melanoma, in the experiment with SW-620 colon, in the experiment with K-562 leukemia and in the experiment with SN12C renal was more than 100 µM each time. The TGI with OVCAR-4 ovarian, with HT29 colon, with RXF 393 renal and with T-47D breast was more than 100 µM each time.

For `COC(=O)/C=C\C(C#N)(C#N)N=Cc1sccc1C`, the TGI in the experiment with MDA-MB-231 breast was 1.93 µM; in the experiment on ACHN renal it was 3.8 µM; in the experiment on MALME-3M melanoma it was 11.3 µM; in the experiment on SW-620 colon, 3.88 µM; in the experiment with K-562 leukemia it was more than 100 µM; in the experiment with SN12C renal it was 22.3 µM. The TGI in the experiment with OVCAR-4 ovarian is 10.3 µM; in the experiment with HT29 colon, 3.31 µM; in the experiment on RXF 393 renal, 4.22 µM; in the experiment with T-47D breast it was 5.92 µM.

As for `CN(C(=O)Cc1cc(Cl)c(Cl)cc1NC(=O)CN)[C@H]1CCCC[C@@H]1N1CCCC1`, the TGI with MDA-MB-231 breast is 71.2 µM; with ACHN renal, more than 100 µM; with MALME-3M melanoma, 36.1 µM; in the experiment with SW-620 colon, more than 100 µM; with K-562 leukemia, 57.5 µM; in the experiment on SN12C renal, more than 100 µM. Besides, the TGI in the experiment with OVCAR-4 ovarian was more than 100 µM; with HT29 colon, 58.7 µM; in the experiment with RXF 393 renal, more than 100 µM; in the experiment on T-47D breast it was 98.4 µM.

Turning to `NC(=O)c1c(NC=O)ncn1C1OCC(O)C(O)C1O` (stereo not given), the TGI in the experiment with MDA-MB-231 breast, with ACHN renal, in the experiment on MALME-3M melanoma, in the experiment on SW-620 colon, with K-562 leukemia and with SN12C renal was more than 100 µM in each case. Besides, the TGI with OVCAR-4 ovarian, with HT29 colon, in the experiment with RXF 393 renal and in the experiment with T-47D breast was more than 100 µM in each case.
